Results as given in ChEMBL document CHEMBL1134967, “Identification of novel inhibitors of fibroblast growth factor (FGF-2) binding to heparin and endothelial cell survival from a structurally diverse carbohybrid library” (Bioorg Med Chem Lett, 2002).
“And” between values parts separate entries of the source, which are not always exact repeats. Equal values may be shown once.

Tests used:
[1] = biological target: T1, Fibroblast growth factor 2 (Homo sapiens, UniProt P09038); experiment: Inhibition of Fibroblast growth factor 2 binding to heparin-albumin in ELISA
[2] = biological target: T1, Fibroblast growth factor 2; experiment: 24% inhibition of FGF-2 binding to heparin-albumin by ELISA
[3] = biological target: T1, Fibroblast growth factor 2; experiment: 25% inhibition of FGF-2 binding to heparin-albumin by ELISA
[4] = biological target: T1, Fibroblast growth factor 2; experiment: 23% inhibition of FGF-2 binding to heparin-albumin by ELISA

T1 sequence (P09038 143-288 limits assumed): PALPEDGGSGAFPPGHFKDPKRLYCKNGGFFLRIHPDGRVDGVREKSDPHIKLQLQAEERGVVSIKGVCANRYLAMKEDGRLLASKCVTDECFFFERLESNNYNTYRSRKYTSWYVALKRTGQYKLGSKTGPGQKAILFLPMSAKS

SMILES	Imax [1] [%]	IC50 [2] [nM]	IC50 [3]	IC50 [4] [nM]
O=C(NC1OC(C(=O)O)C(O)C(O)C1O)c1cccs1 (stereo not given)	40	–	–	–
O=C(NC1OC(C(=O)O)C(O)C(O)C1O)c1ccncc1 (stereo not given)	45	–	–	–
COc1cc(C(=O)NC2OC(C(=O)O)C(O)C(O)C2O)cc(OC)c1OC (stereo not given)	23	–	–	150
O=C(O)[C@@H]1O[C@@H](OCCN2C(=O)CCC2=O)[C@@H](O)[C@@H](O)[C@@H]1O	25	–	< 313 nM and 340 nM	–

The remaining lines, values ahead:

Imax [1] [%]	IC50 [2] [nM]	IC50 [3]	IC50 [4] [nM]	SMILES
24	25.2	–	–	O=C(COc1ccc(Cl)cc1Cl)NC1OC(C(=O)O)C(O)C(O)C1O (stereo not given)
39	–	33000 nM	–	O=C(NC1OC(C(=O)O)C(O)C(O)C1O)c1ccc(F)c(F)c1 (stereo not given)
